Laboratory results taken from patent US12617762B2, “Carboxy derivatives with antiinflamatory properties” (Sitryx Therapeutics Limited, priority 2019, dated 2026).
Counter-ions that a name gives are not always drawn. Like-named read-outs stand apart in the source and are kept apart here.

Key:
[1] = system: IL-1β cytokine output from THP-1s; assay: THP-1 AlphaLISA IL-1β cytokine inhibition assay; assay type: cell-based; conditions: Homo sapiens
Method in brief: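 THP-1 cells differentiated with PMA for 72 h, pre-incubated with compound 30 min, then LPS-primed 24 h and Nigericin-stimulated 1 h (37° C./5% CO2). Supernatant IL-1β measured by AlphaLISA; percentage inhibition normalised to +LPS (high) and −LPS (low) plate controls.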

[2] = system: IL-6 cytokine output from THP-1s; assay: THP-1 AlphaLISA IL-6 cytokine inhibition assay; assay type: cell-based; conditions: Homo sapiens, LPS then nigericin
Method in brief: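 THP-1 cells differentiated with PMA for 72 h, then pre-incubated with compound 30 min, stimulated with LPS 24 h, then Nigericin 1 h, all at 37° C. Supernatant IL-6 measured by AlphaLISA. Percentage inhibition normalized to +/− LPS plate controls.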

[3] = system: NRF2 (nuclear factor erythroid 2-related factor 2); assay: NRF2 +/-GSH activation assay (DiscoverX PathHunter NRF2 translocation kit, U2OS cells); assay type: cell-based; conditions: for NRF2 activation +GSH Emax / NRF2 activation −GSH Emax / −GSH Emax: normalised to DMF high control
Method in brief: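 U2OS PathHunter eXpress cells, 24 h post-plating, treated with compound ±GSH (+GSH arm: 30 min compound–GSH pre-incubation, 6 mM working GSH), then 6 h at 37 °C. NRF2 nuclear translocation read by enzyme-fragment-complementation chemiluminescence; % activation normalised to DMF high and untreated low controls.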

[4] = Hepatocyte stability assay, mouse; assay type: in vitro ADME; conditions: mouse, hepatocytes; for hepatocyte CLint at 10 μM: Hepatocyte stability Clint; for half-life at 10 μM: Hepatocyte stability T½
Method in brief: (§1)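 Cryopreserved hepatocytes (viability >70%), 0.5×10^6 cells/mL in Leibovitz buffer, preincubated 10 min at 37° C, then 10 μM compound (0.1% DMSO) in duplicate; sampled 0-60 min, acetonitrile quench, LC-MS/MS. CLint and half-life from ln % remaining vs time; buffer-only incubation as negative control.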

[5] = Hepatocyte stability assay, human; assay type: in vitro ADME; conditions: human, hepatocytes; for hepatocyte CLint at 10 μM: Hepatocyte stability Clint; for half-life at 10 μM: Hepatocyte stability T½
Method in brief: as §1

[6] = THP-1, Table 3, head to head comparison of exo vs endo double bond compounds
[7] = THP-1, differentiated THP-1 cells, LPS then nigericin
[8] = +GSH, 30 minute compound-GSH pre-incubation, read-out: NRF2 activation +GSH EC50
[9] = −GSH, Table 5 exo vs endo comparison, read-out: −GSH EC50
[10] = −GSH, U2OS PathHunter cells, 6 hours compound treatment, read-out: NRF2 activation −GSH EC50
[11] = −GSH, Table 5 exo vs endo comparison
[12] = THP-1, differentiated THP-1 cells

Row | IC50 ([2]; differentiated THP-1 cells) [µM] | SMILES | IC50 [1, 6] [µM] | IC50 [1, 7] [µM] | EC50 [3, 8] [µM] | NRF2 activation +GSH Emax ([3]; +GSH) [%] | NRF2 activation, result in words ([3]; −GSH and/or +GSH) | EC50 [3, 9] [µM] | EC50 [3, 10] [µM] | NRF2 activation −GSH Emax ([3]; −GSH) [%] | −GSH Emax [3, 11] [%] | hepatocyte CLint at 10 μM [4] [µL/min/1e6 cells] | half-life at 10 μM [4] [min] | hepatocyte CLint at 10 μM [5] [µL/min/1e6 cells] | half-life at 10 μM [5] [min] | IC50 [2, 12] [µM]
1 | 51.2 | C/C(=C\c1nc(C2(c3ccc(Br)cc3)CC2)no1)C(=O)O [Example 168] | 33.6 | 33.6 | > 100 | 16 | more potent in NRF2 (-GSH) than Example 50 | 1.4 | 1.4 | 69 | 69 | 393 | 5 | 69 | 18 | 
2 |  | C=C(C(=O)O)C(O)c1nc(CCCCCCCC)no1 (stereo not drawn) [Example 108, 2-(hydroxy(3-octyl-1,2,4-oxadiazol-5-yl)methyl)acrylic acid] |  | 18.4 | 29 | 213 |  |  | 19.7 | 299 |  | 438 | 4 | 10 | 163 | 8.3
3 |  | C=C(Cc1nc(CCCCCCCCCCC)no1)C(=O)O [Example 56, 2-((3-undecyl-1,2,4-oxadiazol-5-yl)methyl)acrylic acid] |  | 3.4 | 3.1 | 110 |  |  | 2.8 | 175 |  | > 460 | < 3 | > 460 | < 3 | 3.3
4 |  | C=C(Cc1nc(C2(c3ccc(Cl)c(F)c3)CC2)no1)C(=O)O [Example 52, 2-((3-(1-(4-chloro-3-fluorophenyl)cyclopropyl)-1,2,4-oxadiazol-5-yl)methyl)acrylic acid] |  | 19.4 | > 100 | 40 |  |  | 15.2 | 78 |  | 134 | 10 | 24 | 55 | 25.5
5 |  | C=C(Cc1nc(C2(c3ccc(SC(F)(F)F)cc3)CC2)no1)C(=O)O [Example 86, 2-((3-(1-(4-((trifluoromethyl)thio)phenyl)cyclopropyl)-1,2,4-oxadiazol-5-yl)methyl)acrylic acid] | 8.4 | 8.4 | 35 | 221 |  | 18 | 18 | 320 | 320 | 17 | 103 | 7 | 235 | 9.4
6 |  | C=C(Cc1nc(C2(c3ccc(S(F)(F)(F)(F)F)cc3)CC2)no1)C(=O)O [Example 77, 2-((3-(1-(4-(pentafluoro-λ^6-sulfaneyl)phenyl)cyclopropyl)-1,2,4-oxadiazol-5-yl)methyl)acrylic acid] | 7.6 | 7.6 | 52.7 | 69 |  | 48.1 | 48.1 | 210 | 210 | 10 | 189 | < 3 | > 460 | 14.6
7 |  | C=C(Cc1nc(Cc2ccc(OCCCC)cc2)no1)C(=O)O [Example 51, 2-((3-(4-butoxybenzyl)-1,2,4-oxadiazol-5-yl)methyl)acrylic acid] |  | 53.4 | 6.7 | 181 |  |  | 4.6 | 269 |  | 278 | 5 | 24 | 55 | 5.3
8 |  | C=C(Cc1nc(CCCCCCC(F)(F)C(F)(F)F)no1)C(=O)O [Example 17, 2-((3-(7,7,8,8,8-pentafluorooctyl)-1,2,4-oxadiazol-5-yl)methyl)acrylic acid] |  | 19.3 | 8.7 | 140 |  |  | 5.1 | 179 |  | 105 | 12 | 42 | 34 | 5.3
9 |  | C=C(Cc1cc(CCCCCCCC)ccn1)C(=O)O [Example 104, 2-((4-octylpyridin-2-yl)methyl)acrylic acid trifluoroacetic acid salt] |  | 11.6 | 8.2 | 216 |  |  | 7.5 | 293 |  | > 460 | < 3 | 370 | 3 | 2.1
10 |  | C=C(Cc1nc(C2(c3ccc(C(F)(F)F)cc3)CC2)co1)C(=O)O [Example 103, 2-((4-(1-(4-(trifluoromethyl)phenyl)cyclopropyl)oxazol-2-yl)methyl)acrylic acid] |  | 14.4 | 42.7 | 190 |  |  | 40.5 | 306 |  | 94 | 16 | 43 | 31 | 19.7
11 |  | C=C(Cc1nc(Cc2ccc(-c3ccc(Cl)cc3)cc2)no1)C(=O)O [Example 19, 2-((3-((4′-chloro-[1,1′-biphenyl]-4-yl)methyl)-1,2,4-oxadiazol-5-yl)methyl)acrylic acid] |  | 77 | 7.4 | 140 |  |  | 2.5 | 206 |  | > 460 | < 3 | 63 | 20 | 3.3
12 |  | C=C(Cc1nc(C(C)CCCCCC)no1)C(=O)O (stereo not drawn) [Example 8, 2-((3-(octan-2-yl)-1,2,4-oxadiazol-5-yl)methyl)acrylic acid] |  | 16.8 | 28.1 | 167 |  |  | 20.9 | 175 |  | 143 | 10 | 28 | 51 | 14
13 |  | C=C(Cc1nc(CCCCCCC)no1)C(=O)O [Example 6, 2-((3-heptyl-1,2,4-oxadiazol-5-yl)methyl)acrylic acid] |  | 24.7 | 29.1 | 170 |  |  | 22.9 | 190 |  | 185 | 9 | 38 | 31 | 26
14 |  | C=C(Cc1noc(CCCCCCCC)n1)C(=O)O [Example 3, 2-((5-octyl-1,2,4-oxadiazol-3-yl)methyl)acrylic acid] |  | 14.6 | 6.9 | 199 |  |  | 3.7 | 218 |  | 117 | 12 | 110 | 15 | 4.4
15 |  | C=C(Cc1nc([C@@H](C)CCCCCC)no1)C(=O)O [Example 43, (S)-2-((3-(octan-2-yl)-1,2,4-oxadiazol-5-yl)methyl)acrylic acid] |  | 36.9 | 27.4 | 81 |  |  | 30.4 | 166 |  | 142 | 12 | 33 | 42 | 23.1
16 | 7.2 | C=C(Cc1ncc(CCCCCCCC)o1)C(=O)O [Example 59, 2-((5-octyloxazol-2-yl)methyl)acrylic acid] |  | 6.9 | 5.4 | 136 |  |  | 3.9 | 213 |  | > 460 | < 3 | > 460 | < 3 | 
17 |  | C=C(Cc1nc(-c2ccc(OCCCC)cc2)no1)C(=O)O [Example 61, 2-((3-(4-butoxyphenyl)-1,2,4-oxadiazol-5-yl)methyl)acrylic acid] | 13.9 | 13.9 | 4.9 | 124 |  | 3.2 | 3.2 | 198 | 198 | 301 | 4 | 52 | 29 | 3.1
